ChEMBL document CHEMBL1201862, “PubChem BioAssay data set” (2004)
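Grown in 96-well plates, cells were treated for 48 hours with each compound at five concentrations. Insufficient inhibition: endpoint recorded as highest concentration tested. Abbreviation: GI50, concentration required for 50% inhibition of growth.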 Active and inactive are the calls of the source. Cut-off read from the data, not from the text of the source: active = GI50 up to about 1.1 µM and inactive = higher.

What was measured:
Experiment in all cases: growth of human tumour cells (NCI), 48 h
HCC 2998 = tested on: HCC 2998
EKVX = tested on: EKVX
T47D = tested on: T47D
CAKI-1 = tested on: CAKI-1
SK-MEL-2 = tested on: SK-MEL-2
SK-MEL-28 = tested on: SK-MEL-28
MDA-N = tested on: MDA-N
KM12 = tested on: KM12
SNB-75 = tested on: SNB-75
RXF 393 = tested on: RXF 393
SF-539 = tested on: SF-539
A549 = tested on: A549
SN12C = tested on: SN12C
NCI-H226 = tested on: NCI-H226
U-251 = tested on: U-251
HT-29 = tested on: HT-29
Malme-3M = tested on: Malme-3M
SF-295 = tested on: SF-295
UO-31 = tested on: UO-31
LOX IMVI = tested on: LOX IMVI

Row | SMILES | GI50 (HCC 2998) | GI50 (EKVX) | GI50 (T47D) | GI50 (CAKI-1) | GI50 (SK-MEL-2) | GI50 (SK-MEL-28) | GI50 (MDA-N) | GI50 (KM12) | GI50 (SNB-75) | GI50 (RXF 393) | GI50 (SF-539) | GI50 (A549) | GI50 (SN12C) | GI50 (NCI-H226) | GI50 (U-251) | GI50 (HT-29) | GI50 (Malme-3M) | GI50 (SF-295) | GI50 (UO-31) | GI50 (LOX IMVI)
1 | COC(=O)c1cc2c3c(cc(NCCN)c2[nH]1)N(C(=O)c1cc2cc(OC)c(OC)c(OC)c2[nH]1)CC3CCl (stereo not drawn) | 0.0982 µM (active) | 0.158 µM (active) | 0.031 µM (active) | 0.144 µM (active) | 0.0628 µM (active) | 0.109 µM (active) | 0.0811 µM (active) | 0.205 µM (active) | 0.0382 µM (active) | 0.0301 µM (active) | 0.0392 µM (active) | 0.145 µM (active) | 0.0982 µM (active) | 0.0177 µM (active) | 0.0144 µM (active) | 0.0277 µM (active) | 0.0377 µM (active) | 0.228 µM (active) | 0.192 µM (active) | 0.0186 µM (active)
2 | CNC(=O)N1CN(c2ccccc2)C2(CCN(CCCC3(c4ccc(F)cc4)OCCO3)CC2)C1=O | > 100 µM (inactive) | > 100 µM (inactive) | > 100 µM (inactive) | > 100 µM (inactive) | > 100 µM (inactive) | > 100 µM (inactive) | > 100 µM (inactive) | > 100 µM (inactive) | > 100 µM (inactive) | > 100 µM (inactive) | > 100 µM (inactive) | > 100 µM (inactive) | > 100 µM (inactive) | > 100 µM (inactive) | > 100 µM (inactive) | > 100 µM (inactive) | > 100 µM (inactive) | > 100 µM (inactive) | > 100 µM (inactive) | > 100 µM (inactive)
3 | O=c1[nH]c2ccc(CC(=S)N3CCN(c4ccccc4)CC3)cc2o1 | > 100 µM (inactive) | 37.9 µM (inactive) | > 100 µM (inactive) | 97.9 µM (inactive) | > 100 µM (inactive) | > 100 µM (inactive) | > 49.9 µM (inactive) | 63.4 µM (inactive) | > 34 µM (inactive) | > 100 µM (inactive) | > 67.8 µM (inactive) | 85.3 µM (inactive) | > 100 µM (inactive) | > 42 µM (inactive) | 41.2 µM (inactive) | > 100 µM (inactive) | 4.78 µM (inactive) | > 89.3 µM (inactive) | > 100 µM (inactive) | > 100 µM (inactive)
4 | C=C(C)C(=O)O[C@@H]1C[C@@]2(C)O[C@@H]2C[C@H](O)/C(C)=C/[C@H]2OC(=O)C(=C)[C@@H]21 | > 100 µM (inactive) | 62.2 µM (inactive) | 50.7 µM (inactive) | 28.6 µM (inactive) | 49.1 µM (inactive) | 22.4 µM (inactive) | 50 µM (inactive) | > 100 µM (inactive) | > 100 µM (inactive) | 33.3 µM (inactive) | > 100 µM (inactive) | > 100 µM (inactive) | 36.6 µM (inactive) | > 100 µM (inactive) | > 100 µM (inactive) | 61.5 µM (inactive) | 24.5 µM (inactive) | > 100 µM (inactive) | – | 29.9 µM (inactive)
5 | O=C(CCNC12CC3CC(CC(C3)C1)C2)c1ccccc1 | 13.3 µM (inactive) | – | 20.6 µM (inactive) | > 10 µM (inactive) | 15.9 µM (inactive) | 22.3 µM (inactive) | 16 µM (inactive) | 23.6 µM (inactive) | 33 µM (inactive) | 20.1 µM (inactive) | 20.9 µM (inactive) | 30.1 µM (inactive) | 16.6 µM (inactive) | 33.1 µM (inactive) | 15.1 µM (inactive) | 2.79 µM (inactive) | 18.2 µM (inactive) | 20 µM (inactive) | 25.1 µM (inactive) | –
6 | ClC(Cl)(Cl)C1CCOC1n1nc2ccccc2n1 (stereo not drawn) | > 100 µM (inactive) | > 100 µM (inactive) | > 100 µM (inactive) | > 100 µM (inactive) | > 100 µM (inactive) | – | > 100 µM (inactive) | – | 28.2 µM (inactive) | > 100 µM (inactive) | > 100 µM (inactive) | > 100 µM (inactive) | > 100 µM (inactive) | > 100 µM (inactive) | > 100 µM (inactive) | > 100 µM (inactive) | > 100 µM (inactive) | > 100 µM (inactive) | – | –
